Calls of active or inactive are those of the source. How the calls were made is not given here.
System: rodent carcinogenicity bioassays, tumor incidence
Test: CCRIS carcinogenicity studies
From the text: The CCRIS database contains chemical records with carcinogenicity, mutagenicity, tumor promotion, and tumor inhibition test results. It was developed by the National Cancer Institute (NCI). Data are derived from studies cited in primary journals, current awareness tools, NCI reports, and other sources. Test results have been reviewed by experts in carcinogenesis and mutagenesis.
CCRIS provides historical information from the years 1985 - 2011. It is no longer updated.
This is an archive assay for CCRIS carcinogenicity studies.

In the case of `C[N+](C)(C)NCCC(=O)[O-]`, the carcinogen call (Species: MOUSE, Strain/Sex: B6D2F1/FEMALE, Route: GAVAGE, Dose: 0, 400, 4000 MG/KG BW IN 0.2 ML WATER 3X/WK FOR 22 MONTHS (STUDY DURATION: 22 MONTHS), Dose: 0, 400, 4000 MG/KG BW IN 0.2 ML WATER 3X/WK FOR 22 MONTHS (STUDY DURATION: 22 MONTHS)) was “inactive; negative”, the carcinogen call (Species: MOUSE, Strain/Sex: C3H/FEMALE, Route: ORAL, Dose: 0, 0.1% IN DRINKING WATER FOR LIFETIME (STUDY DURATION: LIFETIME)) was “inactive; negative” and the carcinogen call (Species: MOUSE, Strain/Sex: SHR/FEMALE, Route: SUBCUTANEOUS, Dose: 0, 0.1 MG IN ISOTONIC SALINE 1X/D FOR 5 D WITH 4-WK INTERVALS FOR LIFETIME (STUDY DURATION: LIFETIME)) was “inactive; negative”.

With `S=P(N1CCOCC1)(N1CC1)N1CC1` the carcinogen call (Species: MOUSE, Route: INTRAPERITONEAL, Tumor Site: Type of Lesion: LUNG) was “active; positive”.

With `Cc1cc(C)c(S(=O)(=O)O)cc1N=Nc1cc(S(=O)(=O)O)c2ccccc2c1O` the carcinogen call (Species: MOUSE, Strain/Sex: SWISS-WEBSTER/FEMALE, Route: DERMAL, Dose: 0, 1% IN 0.1 ML DISTILLED WATER 1/WK FOR 19.5 MO (STUDY DURATION: 19.5 MO)) was “inactive; negative” and the carcinogen call (Species: MOUSE, Strain/Sex: SWISS-WEBSTER/MALE, Route: DERMAL, Dose: 0, 1% IN 0.1 ML DISTILLED WATER 1/WK FOR 19.5 MO (STUDY DURATION: 19.5 MO)) was “inactive; negative”.

With `CBr` the carcinogen call (Species: DOG, Strain/Sex: BEAGLE/FEMALE, Route: ORAL, Dose: 0, 0.07, 0.12, 0.27 MG/KG/D IN DIET FOR 1 YR (STUDY DURATION: 1 YR), Dose: 0, 0.07, 0.12, 0.27 MG/KG/D IN DIET FOR 1 YR (STUDY DURATION: 1 YR)) was “inactive; negative”, the carcinogen call (Species: DOG, Strain/Sex: BEAGLE/MALE, Route: ORAL, Dose: 0, 0.06, 0.13, 0.28 MG/KG/D IN DIET FOR 1 YR (STUDY DURATION: 1 YR), Dose: 0, 0.06, 0.13, 0.28 MG/KG/D IN DIET FOR 1 YR (STUDY DURATION: 1 YR)) was “inactive; negative” and the carcinogen call (Species: MOUSE, Strain/Sex: B6C3F1/FEMALE, Route: INHALATION, Dose: 0, 10, 33, 100 PPM 6 HR/D 5 D/WK FOR UP TO 103 WK, DOSING IN 100 PPM GROUP DISCONTINUED AFTER 20 WK (STUDY DURATION: 104, Dose: 0, 10, 33, 100 PPM 6 HR/D 5 D/WK FOR UP TO 103 WK, DOSING IN 100 PPM GROUP DISCONTINUED AFTER 20 WK (STUDY DURATION: 104) was “inactive; negative”. For the same molecule, the carcinogen call (Species: MOUSE, Strain/Sex: B6C3F1/MALE, Route: INHALATION, Dose: 0, 10, 33, 100 PPM 6 HR/D 5 D/WK FOR UP TO 103 WK, DOSING IN 100 PPM GROUP DISCONTINUED AFTER 20 WK (STUDY DURATION: 104, Dose: 0, 10, 33, 100 PPM 6 HR/D 5 D/WK FOR UP TO 103 WK, DOSING IN 100 PPM GROUP DISCONTINUED AFTER 20 WK (STUDY DURATION: 104) was “inactive; negative”, the carcinogen call (Species: MOUSE, Strain/Sex: BDF1/FEMALE, Route: INHALATION, Dose: 0, 4, 16, 64 PPM 6 HR/D 5 D/WK FOR 104 WK (STUDY DURATION: 105 WK), Dose: 0, 4, 16, 64 PPM 6 HR/D 5 D/WK FOR 104 WK (STUDY DURATION: 105 WK)) was “inactive; negative” and the carcinogen call (Species: MOUSE, Strain/Sex: BDF1/MALE, Route: INHALATION, Dose: 0, 4, 16, 64 PPM 6 HR/D 5 D/WK FOR 104 WK (STUDY DURATION: 105 WK), Dose: 0, 4, 16, 64 PPM 6 HR/D 5 D/WK FOR 104 WK (STUDY DURATION: 105 WK)) was “inactive; negative”. For the same molecule, the carcinogen call (Species: RAT, Strain/Sex: F344/FEMALE, Route: INHALATION, Dose: 0, 4, 20, 100 PPM 6 HR/D 5 D/WK FOR 104 WK (STUDY DURATION: 105 WK), Dose: 0, 4, 20, 100 PPM 6 HR/D 5 D/WK FOR 104 WK (STUDY DURATION: 105 WK)) was “inactive; negative”, the carcinogen call (Species: RAT, Strain/Sex: F344/FEMALE, Route: ORAL) was “inactive; negative” and the carcinogen call (Species: RAT, Strain/Sex: F344/MALE, Route: INHALATION, Dose: 0, 4, 20, 100 PPM 6 HR/D 5 D/WK FOR 104 WK (STUDY DURATION: 105 WK), Dose: 0, 4, 20, 100 PPM 6 HR/D 5 D/WK FOR 104 WK (STUDY DURATION: 105 WK)) was “inactive; negative”. For the same molecule, the carcinogen call (Species: RAT, Strain/Sex: F344/MALE, Route: ORAL) was “inactive; negative”, the carcinogen call (Species: RAT, Strain/Sex: WISTAR/FEMALE, Route: GAVAGE, Dose: 0.4, 2, 10, 50 MG/KG IN ARACHIS OIL 5/WK FOR 13 WK, Dose: 0.4, 2, 10, 50 MG/KG IN ARACHIS OIL 5/WK FOR 13 WK, Tumor Site: Type of Lesion: FORESTOMACH: CARCINOMA) was “active; positive” and the carcinogen call (Species: RAT, Strain/Sex: WISTAR/FEMALE, Route: INHALATION, Dose: 0, 3, 30, 90 PPM 6 HR/D 5 D/WK FOR 29 MO (STUDY DURATION: 29 MO), Dose: 0, 3, 30, 90 PPM 6 HR/D 5 D/WK FOR 29 MO (STUDY DURATION: 29 MO)) was “inactive; negative”. The carcinogen call (Species: RAT, Strain/Sex: WISTAR/MALE, Route: GAVAGE, Dose: 0.4, 2, 10, 50 MG/KG IN ARACHIS OIL 5/WK FOR 13 WK, Dose: 0.4, 2, 10, 50 MG/KG IN ARACHIS OIL 5/WK FOR 13 WK, Tumor Site: Type of Lesion: FORESTOMACH: PAPILLOMA, CARCINOMA) was “active; positive” and the carcinogen call (Species: RAT, Strain/Sex: WISTAR/MALE, Route: INHALATION, Dose: 0, 3, 30, 90 PPM 6 HR/D 5 D/WK FOR 29 MO (STUDY DURATION: 29 MO), Dose: 0, 3, 30, 90 PPM 6 HR/D 5 D/WK FOR 29 MO (STUDY DURATION: 29 MO)) was “inactive; negative”.

In the case of `O[C@@H]1[C@@H](O)[C@@H](O)OC[C@H]1O`, the carcinogen call (Species: RAT, Strain/Sex: F344/FEMALE, Route: ORAL (DIET), Dose: 0, 2.5%, 5% FOR 104 WKS (STUDY DURATION: 104 WKS), Dose: 0, 2.5%, 5% FOR 104 WKS (STUDY DURATION: 104 WKS)) was “inactive; negative” and the carcinogen call (Species: RAT, Strain/Sex: F344/MALE, Route: ORAL (DIET), Dose: 0, 2.5%, 5% FOR 104 WKS (STUDY DURATION: 104 WKS), Dose: 0, 2.5%, 5% FOR 104 WKS (STUDY DURATION: 104 WKS)) was “inactive; negative”.

`Oc1ccc(Cl)cc1Cl` was tested, and the carcinogen call (Species: MOUSE, Strain/Sex: B6C3F1/FEMALE, Route: ORAL, Dose: 0, 5000, 10000 PPM IN FEED FOR 103 WK (STUDY DURATION: 104 WK), Dose: 0, 5000, 10000 PPM IN FEED FOR 103 WK (STUDY DURATION: 104 WK)) was “inactive; negative”, the carcinogen call (Species: MOUSE, Strain/Sex: B6C3F1/MALE, Route: ORAL, Dose: 0, 5000, 10000 PPM IN FEED FOR 103 WK (STUDY DURATION: 104 WK), Dose: 0, 5000, 10000 PPM IN FEED FOR 103 WK (STUDY DURATION: 104 WK)) was “inactive; negative” and the carcinogen call (Species: RAT, Strain/Sex: F344/FEMALE, Route: ORAL, Dose: 0, 2500, 5000 PPM IN FEED FOR 103 WK (STUDY DURATION: 104 WK), Dose: 0, 2500, 5000 PPM IN FEED FOR 103 WK (STUDY DURATION: 104 WK)) was “inactive; negative”. For the same molecule, the carcinogen call (Species: RAT, Strain/Sex: F344/MALE, Route: ORAL, Dose: 0, 5000, 10000 PPM IN FEED FOR 103 WK (STUDY DURATION: 104 WK), Dose: 0, 5000, 10000 PPM IN FEED FOR 103 WK (STUDY DURATION: 104 WK)) was “inactive; negative”.

For `CCCC(CCC)C(=O)O`, the carcinogen call (Species: RAT, Strain/Sex: WISTAR/FEMALE, Route: ORAL, Dose: 0, 125, 250, 500 MG/KG BW IN DIET FOR 104 WK (STUDY DURATION: 104 WK), Dose: 0, 125, 250, 500 MG/KG BW IN DIET FOR 104 WK (STUDY DURATION: 104 WK), Tumor Site: Type of Lesion: UTERUS: ADENOCARCINOMA) was “active; positive” and the carcinogen call (Species: RAT, Strain/Sex: WISTAR/MALE, Route: ORAL, Dose: 0, 125, 250, 500 MG/KG BW IN DIET FOR 104 WK (STUDY DURATION: 104 WK), Dose: 0, 125, 250, 500 MG/KG BW IN DIET FOR 104 WK (STUDY DURATION: 104 WK)) was “inactive; negative”.

Reference: PubChem BioAssay AID1259411 (Chemical Carcinogenesis Research Information System (CCRIS), 2018)
